# Source: US11911353B2, “Fatty acid synthase inhibitor and application thereof” (Jiangnan University, priority 2019, dated 2024)
# What was measured:
# [1] = biological target: T1, fatty acid synthase (FASN) in colon cancer cells HCT116 (Homo sapiens, UniProt P49327); assay: FASN enzyme activity detection in treated HCT116 cells (NADPH absorbance at 340 nm); format: cell-based; conditions: HCT-116, 4 hours of incubation, read-out: FASN enzyme activity inhibition rate (%)
# T1 construct: endogenous in cells; host or cells: HCT116 colon cancer cells
# [2] = system: tumor cells 22RV1, PC-3, HT-29, Hela, Hep G2, CaCo-2 and HCT116; assay: MTT proliferation of various tumor cells at single concentration (FIG. 2); format: cell-based; conditions: 10 μM, 72 hours, 7 different tumor cells
# Excerpt: Cell survival rate=(OD570−OD630)/(OD570 negative control−OD630 negative control); wherein, OD570: OD570 value of each treatment group; OD630: OD630 value of each treatment group; OD570 control: OD570 value of the negative control group; OD630 control: OD630 value of the negative control group.
# [3] = system: colon cancer cells HCT116; assay: Fatty acid content and composition by GC/MS, HCT116 (FIG. 5); format: cell-based; conditions: HCT116, 20 μM, 24 hours
# Excerpt: […]
# [4] = system: preadipocytes OP9; assay: Lipid droplet formation in preadipocytes OP9, oil red O staining (FIG. 6); format: cell-based; conditions: 20 μM, differentiation with 1 μM rosiglitazone, OD510
# Description: The effect of the compound shown as the formula I-1 on preadipocytes OP9 is detected: • (1) The cancer cells in the logarithmic growth phase are taken and inoculated into a 6 cm culture dish with the inoculation density of 2*10^6 cells, and incubated under 5% CO2 at 37° C. • (2) After cell adherence, 6 ml of 10% FBS culture medium containing 20 μM of the compound shown as the formula I is added into each dish with the culture medium as a negative control; cerulenin as a positive control; and 1 μM rosiglitazone (RSG) is used for differentiation. • (3) To observe the formation of lipid droplets, cells were incubated with 4% paraformaldehyde solution for 30 min at room temperature, washed with phosphate-buffered saline (PBS), and then stained with 0.5% oil red O in 60% isopropanol. • (4) After washing with distilled water, the stained cells were observed through a microscope, and then oil red O was extracted with isopropanol for quantification. This quantification was performed by measuring the absorbance of isopropanol solutions of oil red O at 510 nm.
# [5] = system: transplanted tumors PC3; assay: Growth of transplanted tumors PC3 in nude mice (FIG. 8); format: in vivo; conditions: 5 mg/kg intraperitoneally every 2 days, four weeks
# Excerpt: […]
# T1 sequence (P49327 whole entry): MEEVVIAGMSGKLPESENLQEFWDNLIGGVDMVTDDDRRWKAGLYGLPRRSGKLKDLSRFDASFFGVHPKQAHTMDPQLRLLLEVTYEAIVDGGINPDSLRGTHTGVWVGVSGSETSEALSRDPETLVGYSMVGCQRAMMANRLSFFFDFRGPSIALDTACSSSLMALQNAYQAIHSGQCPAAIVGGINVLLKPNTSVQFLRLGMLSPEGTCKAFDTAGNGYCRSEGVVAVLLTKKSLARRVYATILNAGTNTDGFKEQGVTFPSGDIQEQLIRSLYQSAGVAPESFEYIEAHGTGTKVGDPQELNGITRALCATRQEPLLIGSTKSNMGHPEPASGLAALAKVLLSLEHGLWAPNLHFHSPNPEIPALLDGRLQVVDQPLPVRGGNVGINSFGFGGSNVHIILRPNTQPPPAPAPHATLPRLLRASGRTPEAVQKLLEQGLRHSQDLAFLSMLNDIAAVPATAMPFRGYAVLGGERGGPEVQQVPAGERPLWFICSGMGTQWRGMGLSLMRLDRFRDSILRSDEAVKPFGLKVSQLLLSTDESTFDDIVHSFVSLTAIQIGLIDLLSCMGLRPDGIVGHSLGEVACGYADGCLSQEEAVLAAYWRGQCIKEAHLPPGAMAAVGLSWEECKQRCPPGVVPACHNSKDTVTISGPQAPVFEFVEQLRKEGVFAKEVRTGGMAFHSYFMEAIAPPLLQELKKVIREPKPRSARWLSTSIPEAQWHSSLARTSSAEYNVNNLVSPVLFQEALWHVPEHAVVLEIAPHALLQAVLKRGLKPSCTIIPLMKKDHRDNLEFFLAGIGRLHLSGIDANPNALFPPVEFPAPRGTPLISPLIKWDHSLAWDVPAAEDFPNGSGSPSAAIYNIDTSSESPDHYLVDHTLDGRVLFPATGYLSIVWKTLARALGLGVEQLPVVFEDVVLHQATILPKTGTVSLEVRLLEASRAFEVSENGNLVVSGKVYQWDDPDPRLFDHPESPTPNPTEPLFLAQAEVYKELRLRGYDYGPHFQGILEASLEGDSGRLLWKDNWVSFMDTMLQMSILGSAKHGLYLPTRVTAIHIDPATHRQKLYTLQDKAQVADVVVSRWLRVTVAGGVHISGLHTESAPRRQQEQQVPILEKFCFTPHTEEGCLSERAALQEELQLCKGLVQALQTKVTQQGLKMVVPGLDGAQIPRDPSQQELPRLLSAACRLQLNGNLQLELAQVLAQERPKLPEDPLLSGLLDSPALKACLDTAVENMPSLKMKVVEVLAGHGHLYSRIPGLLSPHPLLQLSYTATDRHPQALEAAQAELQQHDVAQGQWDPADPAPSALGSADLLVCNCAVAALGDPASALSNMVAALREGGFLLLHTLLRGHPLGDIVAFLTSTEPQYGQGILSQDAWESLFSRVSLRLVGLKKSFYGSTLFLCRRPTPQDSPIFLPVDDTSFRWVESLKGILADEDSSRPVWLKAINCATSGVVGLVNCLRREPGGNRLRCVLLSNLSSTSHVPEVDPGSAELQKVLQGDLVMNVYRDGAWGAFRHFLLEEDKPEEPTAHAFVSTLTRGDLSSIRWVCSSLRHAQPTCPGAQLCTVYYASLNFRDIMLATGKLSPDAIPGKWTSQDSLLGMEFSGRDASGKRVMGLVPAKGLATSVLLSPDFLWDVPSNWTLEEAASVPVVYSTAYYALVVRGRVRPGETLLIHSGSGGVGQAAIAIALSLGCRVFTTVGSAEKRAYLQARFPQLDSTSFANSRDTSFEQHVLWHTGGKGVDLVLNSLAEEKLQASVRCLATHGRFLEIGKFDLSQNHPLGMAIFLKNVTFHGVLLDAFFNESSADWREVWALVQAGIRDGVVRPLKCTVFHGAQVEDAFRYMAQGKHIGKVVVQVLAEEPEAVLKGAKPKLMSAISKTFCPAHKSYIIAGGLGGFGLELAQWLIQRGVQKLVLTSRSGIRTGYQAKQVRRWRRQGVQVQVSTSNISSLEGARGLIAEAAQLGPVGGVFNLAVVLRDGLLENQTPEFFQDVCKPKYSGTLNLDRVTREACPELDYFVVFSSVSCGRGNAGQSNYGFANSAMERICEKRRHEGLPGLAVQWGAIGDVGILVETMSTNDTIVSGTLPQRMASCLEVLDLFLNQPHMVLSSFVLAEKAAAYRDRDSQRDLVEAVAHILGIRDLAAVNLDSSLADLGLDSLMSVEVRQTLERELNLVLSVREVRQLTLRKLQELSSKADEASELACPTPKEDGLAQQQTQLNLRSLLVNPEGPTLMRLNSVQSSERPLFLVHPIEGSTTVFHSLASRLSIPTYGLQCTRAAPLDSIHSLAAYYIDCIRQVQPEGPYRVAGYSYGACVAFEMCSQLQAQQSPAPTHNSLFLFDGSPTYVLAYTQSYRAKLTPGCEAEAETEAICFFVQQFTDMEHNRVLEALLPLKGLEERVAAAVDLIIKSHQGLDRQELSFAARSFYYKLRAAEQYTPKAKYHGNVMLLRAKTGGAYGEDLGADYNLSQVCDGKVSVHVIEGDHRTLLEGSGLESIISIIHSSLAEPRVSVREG
smiles,measurement,setting,value
O=C(CCCC(=O)Nc1ccc(Br)cc1)N/N=C/c1cc(Br)ccc1O [Compound I-1],inhibition at 20 µM,[1],58.6%
same,effect on proliferation of tumor cells,[2],significantly improved inhibitory effect on tumor proliferation
same,fatty acid content of 16:0,[3],lower than that of the control group
same,total fatty acid content,[3],significantly lower than that of the control group
same,number of lipid droplets in cells OP9,[4],reduced significantly
same,HE staining of transplanted tumor tissue,[5]; FIG. 8B,dark dotted area is significantly reduced
same,tumor mass of mice,[5]; PC3 transplanted tumors,significantly lower than that of the control group
